Literature values as cited in PubChem BioAssay AID1259409 (Chemical Carcinogenesis Research Information System (CCRIS), 2018).

Test system: rodent chemically induced tumor inhibition, incidence and multiplicity
Assay: CCRIS tumor inhibitor studies

Question: Which “tumour outcome (control, treated, inhibition, significance)” value (Carcinogen: DIETHYLNITROSAMINE, 55-18-5, Dose [Inhibitor]: 0, 600 MG/L IN DRINKING WATER BEGINNING 3 D PRIOR TO FIRST CARCINOGEN DOSE AND CONTINUING TO 14 D POST LAST CARCINOGEN D, Route [Inhibitor]: ORAL, Species: RAT, Strain/Sex: BD6/FEMALE, Target Tissue: Type of Lesion: ESOPHAGUS: TUMOR, Dose [Carcinogen]: 80 MG/KG BW 1/WK FOR 7 WK, Promoter: NONE USED) does the source give for `Cn1c(=O)c2c(ncn2C)n(C)c1=O` here?
Answer: 25%, 11%, 56%, not significant

Question: And the “tumour outcome (control, treated, inhibition, significance)” value (Carcinogen: DIETHYLNITROSAMINE, 55-18-5, Dose [Inhibitor]: 0, 600 MG/L IN DRINKING WATER BEGINNING 3 D PRIOR TO FIRST CARCINOGEN DOSE AND CONTINUING TO 14 D POST LAST CARCINOGEN D, Route [Inhibitor]: ORAL, Species: RAT, Strain/Sex: BD6/FEMALE, Target Tissue: Type of Lesion: ESOPHAGUS: TUMOR, Dose [Carcinogen]: 80 MG/KG BW 1/WK FOR 8 WK, Promoter: NONE USED)?
Answer: 18%, 22%, -22%, not significant

Question: What about the “tumour outcome (control, treated, inhibition, significance)” value (Carcinogen: DIETHYLNITROSAMINE, 55-18-5, Dose [Inhibitor]: 0, 600 MG/L IN DRINKING WATER BEGINNING 3 D PRIOR TO FIRST CARCINOGEN DOSE AND CONTINUING TO 14 D POST LAST CARCINOGEN D, Route [Inhibitor]: ORAL, Species: RAT, Strain/Sex: BD6/FEMALE, Target Tissue: Type of Lesion: LIVER: TUMOR, Dose [Carcinogen]: 80 MG/KG BW 1/WK FOR 7 WK, Promoter: NONE USED) of the same compound?
Answer: 64%, 56%, 13%, not significant

Question: What about the “tumour outcome (control, treated, inhibition, significance)” value (Carcinogen: DIETHYLNITROSAMINE, 55-18-5, Dose [Inhibitor]: 0, 600 MG/L IN DRINKING WATER FOR DURATION OF STUDY BEGINNING 4 D POST CARCINOGEN TREATMENT (STUDY DURATION: 6 MO), Route [Inhibitor]: ORAL, Species: RAT, Strain/Sex: BD6/FEMALE, Target Tissue: Type of Lesion: LIVER: TUMOR, Dose [Carcinogen]: 80 MG/KG BW 1/WK FOR 9 WK, Promoter: NONE USED) of the same compound?
Answer: 100%, 100%, 0%, not significant

Question: And the “tumour outcome (control, treated, inhibition, significance)” value (Carcinogen: DIETHYLNITROSAMINE, 55-18-5, Dose [Inhibitor]: 0, 600 MG/L IN DRINKING WATER FOR DURATION OF STUDY BEGINNING 4 D POST CARCINOGEN TREATMENT(STUDY DURATION: 6 MO), Route [Inhibitor]: ORAL, Species: RAT, Strain/Sex: BD6/FEMALE, Target Tissue: Type of Lesion: ESOPHAGUS: TUMOR, Dose [Carcinogen]: 80 MG/KG BW 1/WK FOR 9 WK, Promoter: NONE USED)?
Answer: 29%, 21%, 28%, not significant

Question: And the “tumour outcome (control, treated, inhibition, significance)” value (Carcinogen: DIETHYLNITROSAMINE, 55-18-5, Dose [Inhibitor]: 0, 600 MG/L IN DRINKING WATER FOR DURATION OF STUDY BEGINNING 7 D PRIOR TO CARCINOGEN TREATMENT (STUDY DURATION: 6 MO), Route [Inhibitor]: ORAL, Species: RAT, Strain/Sex: BD6/FEMALE, Target Tissue: Type of Lesion: ESOPHAGUS: TUMOR, Dose [Carcinogen]: 80 MG/KG BW 1/WK FOR 5 WK, Promoter: NONE USED)?
Answer: 6%, 11%, -83%, not significant

Question: What about the “tumour outcome (control, treated, inhibition, significance)” value (Carcinogen: DIETHYLNITROSAMINE, 55-18-5, Dose [Inhibitor]: 0, 600 MG/L IN DRINKING WATER FOR DURATION OF STUDY BEGINNING 7 D PRIOR TO CARCINOGEN TREATMENT (STUDY DURATION: 6 MO), Route [Inhibitor]: ORAL, Species: RAT, Strain/Sex: BD6/FEMALE, Target Tissue: Type of Lesion: LIVER: TUMOR, Dose [Carcinogen]: 80 MG/KG BW 1/WK FOR 5 WK, Promoter: NONE USED) of the same compound?
Answer: 44%, 41%, 7%, not significant

Question: What about the “tumour outcome (control, treated, inhibition, significance)” value (Carcinogen: DIETHYNITROSAMINE, 55-18-5, Dose [Inhibitor]: 0, 600 MG/L IN DRINKING WATER BEGINNING 3 D PRIOR TO FIRST CARCINOGEN DOSE AND CONTINUING TO 14 D POST LAST CARCINOGEN D, Route [Inhibitor]: ORAL, Species: RAT, Strain/Sex: BD6/FEMALE, Target Tissue: Type of Lesion: LIVER: TUMOR, Dose [Carcinogen]: 80 MG/KG BW 1/WK FOR 8 WK, Promoter: NONE USED) of the same compound?
Answer: 82%, 72%, 12%, not significant

Question: What about the “tumour outcome (control, treated, inhibition, significance)” value (Carcinogen: N,N-DIETHYLNITROSAMINE, 55-18-5, Dose [Inhibitor]: 600 MG/L IN DRINKING WATER DAILY STARTING 3 D BEFORE START OF CARCINOGEN INJECTION AND CONTINUING UNTIL 2 WK AFTER LAST, Route [Inhibitor]: ORAL, Species: RAT, Strain/Sex: BDIV AND WISTAR/MALE, Target Tissue: Type of Lesion: LIVER: TUMOR, Dose [Carcinogen]: 80 MG/KG BW IN 0.2 ML 0.9% SALINE 1/WK FOR 10 WK, Promoter: NONE USED) of the same compound?
Answer: 18/22 (82%), 12/18 (67%), 18%, not calculated

Question: What about the “tumour outcome (control, treated, inhibition, significance)” value (Carcinogen: N-METHYL-N'-NITRO-N-NITROSOGUANIDINE, 70-25-7, Dose [Inhibitor]: 0, 0.25% IN DRINKING WATER FOR 32 WK BEGINNING POST CARCINOGEN TREATMENT (STUDY DURATION: 40 WK), Route [Inhibitor]: ORAL, Species: RAT, Strain/Sex: WISTAR/MALE, Target Tissue: Type of Lesion: GLANDULAR STOMACH (PYLORUS): ADENOCARCINOMA, Dose [Carcinogen]: 100 PPM IN DRINKING WATER FOR 8 WK, Promoter: SODIUM CHLORIDE, 7647-14-5) of the same compound?
Answer: 4/29 (14%), 0/28 (0%), 100%, p<0.05

Question: And the “tumour outcome (control, treated, inhibition, significance)” value (Carcinogen: N-METHYL-N-NITROSOUREA, 684-93-5, Dose [Inhibitor]: 0, 500 MG/L IN DRINKING WATER BEGINNING AT 60 D OF AGE AND CONTINUING FOR DURATION OF STUDY (STUDY DURATION: 26 WK), Route [Inhibitor]: ORAL, Species: RAT, Strain/Sex: SPRAGUE-DAWLEY/FEMALE, Target Tissue: Type of Lesion: MAMMARY GLAND: CARCINOMA, Dose [Carcinogen]: 2.5 MG/100 G BW ONCE AT 57 D OF AGE, Promoter: NONE USED)?
Answer: 34/40 (85%), 31/40 (78%), 8%, not significant

Question: And the “tumour outcome (control, treated, inhibition, significance)” value (Carcinogen: N-METHYL-N-NITROSOUREA, 684-93-5, Dose [Inhibitor]: 0, 500 UG/L IN DRINKING WATER BEGINNING AT 29 D OF AGE AND CONTINUING TO D 60 OF AGE (STUDY DURATION: 30 WK), Route [Inhibitor]: ORAL, Species: RAT, Strain/Sex: SPRAGUE-DAWLEY, Target Tissue: Type of Lesion: MAMMARY GLAND: CARCINOMA, Dose [Carcinogen]: 2.5 MG/100 G BW ONCE AT 57 D OF AGE, Promoter: NONE USED)?
Answer: 34/40 (85%), 32/40 (80%), 6%, not significant

Question: What about the “tumour outcome (control, treated, inhibition, significance)” value (Carcinogen: SUBCUTANEOUS, Dose [Inhibitor]: 4-(METHYLNITROSAMINO)-1-(3-PYRIDYL-1-BUTANONE), 64091-91-4, Route [Inhibitor]: 0, 680 PPM IN DRINKING WATER FOR 22 WK BEGINNING 1 WK PRIOR TO CARCINOGEN TREATMENT (STUDY DURATION: 101 WK), Species: RAT, Strain/Sex: ORAL, Target Tissue: Type of Lesion: LIVER :TUMOR, Dose [Carcinogen]: NONE USED) of the same compound?
Answer: 11/32 (34%), 8/20 (40%), -18%, not significant

Question: And the “tumour outcome (control, treated, inhibition, significance)” value (Carcinogen: URETHANE, 51-79-6, Dose [Inhibitor]: 0.05 UMOL/G BW GIVEN AT 6 HR INTERVALS DURING THE PERIOD OF 0 TO 36 HR AFTER CARCINOGEN TREATMENT FOR 7 INJECTIONS FOLLO, Route [Inhibitor]: INTRAPERITONEAL, Species: MOUSE, Strain/Sex: ICR/FEMALE, Target Tissue: Type of Lesion: LUNG: PAPILLARY ADENOMA, Dose [Carcinogen]: 0.1 MG/G BW SINGLE INJECTION, Promoter: NONE USED)?
Answer: 31/59 (53%), 7/32 (22%), 58%, p<0.01
